From ChEMBL document CHEMBL1201862, “PubChem BioAssay data set” (2004)
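Growth conditions: 96-well plates. Treatment: test compound, 48 hours, 5 concentrations. Analysis: linear interpolation between bracketing concentrations; unreached endpoints set to highest concentration. GI50 = concentration required for 50% inhibition of growth.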 Activity calls are given as the source filed them. No stated cut-off is given here; in the data, active = GI50 up to about 1.1 µM and inactive = higher.

Key:
Assay in all cases: growth of human tumour cells (NCI), 48 h
[1] = system: A549
[2] = system: ACHN
[3] = system: CAKI-1
[4] = system: COLO 205
[5] = system: HCC 2998
[6] = system: HL-60
[7] = system: K562
[8] = system: NCI-H23
[9] = system: OVCAR-4
[10] = system: OVCAR-5
[11] = system: RPMI-8226
[12] = system: RXF 393
[13] = system: SF-268
[14] = system: SF-295
[15] = system: SK-MEL-28
[16] = system: SK-MEL-2
[17] = system: UACC-62
[18] = system: SR

Measured: GI50

CC(=O)Nc1ccc(-c2nnc(SCC(=O)Nc3cccc(Cl)c3)o2)cc1
inactive: [1] 18.7 µM | [2] 15.2 µM | [3] 19.1 µM | [4] 16.6 µM | [5] 18.6 µM | [6] 18.2 µM | [7] 14.4 µM | [8] 9.79 µM | [9] 17.9 µM | [10] 20.7 µM | [11] 15 µM | [12] 17.4 µM | [13] 13.7 µM | [14] 18.8 µM | [15] 17.9 µM | [16] 20 µM | [17] 15.4 µM

O=C(c1cccc2ccccc12)N1CCC(C2CCN(C(=O)c3cccc4ccccc34)CC2)CC1
inactive: [1] > 100 µM | [2] > 100 µM | [3] > 100 µM | [4] > 100 µM | [6] 65.5 µM | [7] > 100 µM | [8] > 100 µM | [10] 99.1 µM | [11] 91.8 µM | [12] > 100 µM | [13] > 100 µM | [14] > 100 µM | [15] > 100 µM | [16] > 100 µM | [18] > 100 µM | [17] > 100 µM

CC(NS(=O)(=O)c1ccc([N+](=O)[O-])cc1)C(=O)O (configuration not stated)
inactive: [1] > 100 µM | [2] > 100 µM | [3] > 100 µM | [4] > 100 µM | [5] > 100 µM | [6] > 100 µM | [7] > 100 µM | [8] > 100 µM | [9] > 100 µM | [10] > 100 µM | [11] > 100 µM | [12] > 100 µM | [13] > 100 µM | [14] > 100 µM | [15] > 100 µM | [16] > 100 µM | [17] > 100 µM

CC(=O)N1CCN(C=S)CC1
inactive: [1] > 100 µM | [2] > 100 µM | [3] > 100 µM | [4] > 100 µM | [5] > 100 µM | [6] > 100 µM | [7] > 100 µM | [8] > 100 µM | [9] > 100 µM | [10] > 100 µM | [11] > 100 µM | [12] > 100 µM | [13] > 100 µM | [14] > 100 µM | [15] > 100 µM | [18] > 100 µM | [17] > 100 µM

CC(=O)NNc1nc(C)c(C(=O)NNC(=O)C(=O)Nc2c(C)cccc2C)s1
inactive: [1] 42.4 µM | [2] 37.6 µM | [3] 65.6 µM | [4] 31.8 µM | [5] 95.9 µM | [6] 25.9 µM | [7] 34 µM | [8] 24.7 µM | [9] 41.1 µM | [10] 81.3 µM | [11] 26.2 µM | [12] 32.2 µM | [13] 33.2 µM | [14] 40.6 µM | [15] 76.6 µM | [16] 48.9 µM | [17] 33.3 µM

O=C1[C@@H]2C3C=CC([C@H]4C(=O)N(CO)C(=O)[C@@H]34)[C@@H]2C(=O)N1CO
inactive: [1] > 64 µM | [2] > 50.7 µM | [3] > 100 µM | [4] > 49.9 µM | [5] > 70 µM | [6] 24.9 µM | [7] 61.2 µM | [8] > 92.9 µM | [9] > 75.5 µM | [10] > 100 µM | [11] 19.4 µM | [12] > 55.1 µM | [13] > 49.7 µM | [14] > 100 µM | [15] > 63.5 µM | [16] > 100 µM | [17] > 76.2 µM

COC(=O)CC(=O)OC
inactive: [1] > 100 µM | [2] > 100 µM | [3] > 100 µM | [4] > 100 µM | [5] > 100 µM | [6] > 100 µM | [7] > 100 µM | [8] > 100 µM | [9] > 100 µM | [10] > 100 µM | [11] > 100 µM | [12] > 100 µM | [13] > 100 µM | [14] > 100 µM | [16] > 100 µM | [17] > 100 µM

Cc1c2c(cc[n+]1C)O[B-](c1ccccc1)(c1ccccc1)O2
inactive: [1] 84.5 µM | [2] 35.9 µM | [3] 13.5 µM | [4] 32.6 µM | [5] 27.8 µM | [6] 35.1 µM | [7] 46 µM | [8] > 100 µM | [9] 64.4 µM | [10] 87.3 µM | [11] 40.2 µM | [12] 52.1 µM | [13] > 100 µM | [14] 53.6 µM | [16] 91.2 µM | [17] 16.3 µM

Clc1ccc(C2=Nc3ccccc3SC(c3ccc(Cl)c(Cl)c3)C2)c(Cl)c1 (configuration not stated)
inactive: [1] 21 µM | [2] 14.2 µM | [3] 13.5 µM | [4] 18.5 µM | [5] 14.6 µM | [6] 8.45 µM | [7] 6 µM | [8] 15.3 µM | [9] 17.1 µM | [10] 17.1 µM | [11] 2.39 µM | [12] 15.6 µM | [13] 13.2 µM | [14] 12.4 µM | [15] 15.7 µM | [16] 17.4 µM | [17] 15.2 µM

CCCN(CCC)C(=O)c1c([N+](=O)[O-])cc(C(F)(F)F)cc1[N+](=O)[O-]
inactive: [1] 32.5 µM | [2] 65.9 µM | [3] 60.7 µM | [4] 15.4 µM | [6] 20 µM | [7] 28.3 µM | [8] 25.4 µM | [9] 14.9 µM | [10] 65.5 µM | [11] 47.6 µM | [12] 26.2 µM | [13] > 100 µM | [14] 34.4 µM | [15] > 100 µM | [16] 39.4 µM | [18] 51.3 µM | [17] 17.9 µM

O=C1[C@@H]2C(c3cccc([N+](=O)[O-])c3)=NO[C@@H]2C(=O)N1c1ccc(Cc2ccc(N3C(=O)[C@H]4C(c5cccc([N+](=O)[O-])c5)=NO[C@H]4C3=O)cc2)cc1
inactive: [2] > 100 µM | [3] > 100 µM | [4] > 100 µM | [7] > 100 µM | [9] > 100 µM | [10] > 100 µM | [11] > 100 µM | [12] > 100 µM | [13] > 10 µM | [15] > 100 µM | [16] > 100 µM | [18] > 100 µM | [17] > 100 µM

Clc1ccc(SCCCCCCCCCCSc2ccc(Cl)cc2)cc1
inactive: [1] > 73.8 µM | [2] > 58.7 µM | [3] > 100 µM | [4] > 100 µM | [5] > 46.1 µM | [6] > 100 µM | [7] > 91.2 µM | [8] > 100 µM | [9] > 100 µM | [10] > 61 µM | [11] > 100 µM | [12] > 100 µM | [13] > 100 µM | [14] > 57.9 µM | [15] > 100 µM | [16] > 56.1 µM | [17] > 100 µM
